Measured values as given in patent US20190374647A1, “STABLE LIPOSOMES FOR DRUG DELIVERY” (YISSUM RESEARCH DEVELOPMENT COMPANY OF THE HEBREW …, priority 2012, published 2019).
Structures can show the parent of a compound that is named as a salt. Marks after values point to notes of the source that are not given here. Values belong to the compound of their own block, whether it stands above or below them.

Key:
[1] = cited from earlier work
[2] = Blood levels of doxorubicin in mice after single I.V. dose; assay type: in vivo, Balb/c mice; settings: after 48 hours, FIG. 3
Experimental: At defined time-points (see Table 8 below, for composition of each formulation see Tables 5 and 6), mice of each group were euthanized with CO2 and terminal blood was withdrawn from the retro-orbital sinus and collected in labeled K3EDTA tubes. The blood samples were then immediately subjected to plasma separation procedure (4000 rpm for 10 minutes at 4° C.). The plasma, red blood cells fraction and whole blood of each mouse has been collected in labeled CryoTubes and stored at −80° C. pending analysis. Doxorubicin was extracted from the samples as follows. […] From the upper phase, 100 μl of the plasma diluted in A-IPA were diluted in 900 μl mobile phase for analysis and the contents of extracted doxorubicin was determined using fluorescence HPLC (as described in Gabizon et al. (1993) Pharm. Research 10(5):703-708).

[3] = OVCAR-3 xenograft study, tolerability (body weight, clinical signs); assay type: in vivo
Experimental: (§1) G1 animals served as vehicle control and received 5 ml/kg saline. 2, G5 and G6 animals were treated with 8 mg/kg doxorubicin HCl, LC3-PLDMS-2 (PLMDS-2 are liposomes containing 250 mM ammonium methanesulfonate (MS) and remote loaded with doxorubicin (group 5 in the experiment), LC4_PLDMS-5 are liposomes containing 500 mM ammonium methanesulfonate (MS) and remote loaded with doxorubicin (group 6 in the experiment) (respectively, given intravenously (5 mL/kg dose volume) once weekly for 2 consecutive weeks. Body weight, general clinical observations and tumor size were monitored throughout the experimental period. Experimental groups were terminated when median tumor volume reached 2500 mm^3. Endpoint parameters such as body weight change, % ILS, Median tumor volume, TGI, % T/C, RTV, LCK, Tumor growth delay, TVDT and TVDTD were calculated. Tumor volumes were measured twice weekly using a digital vernier caliper recording length (L=longest axis) and width (W=shortest axis), and volume was calculated in mm^3 as L×W^2/2. Groups reaching a median tumor volume of 2500 mm^3 were terminated and the date of termination was used as the date of death for the purpose of survival calculations. The following parameters were calculated: median survival time (MST), percentage increased life span (% ILS) and median tumor volume (TV). Other measured, including median TV change; median tumor growth inhibition (TGI); % T/C; relative tumor volume (RTV); log cell kill (LCK); tumor growth delay; tumor volume doubling time (TVDT); and tumor volume doubling time delay (TVDTC), were derived from the median tumor volume measurements. Tumor growth regression was also plotted.
(§2) Mice bearing growing tumor were selected and randomized into 4 groups containing 8 animals in each based on a mean tumor size of ˜100 mm3. G1 animals served as vehicle control and received 5 ml/kg saline whereas G2, G5 and G6 animals received Doxorubicin HCl, LC3-PLDMS-2 or LC4-PLDMS-5, respectively, at a dose of 8 mg/kg. All the animals were dosed intravenously at the dose volume of 5 ml/kg weekly once for two weeks. Body weight, general clinical observations and tumor volume parameters were recorded during the experimental period. Groups reaching median tumor volume of 2500 mm^3 were terminated.
The body weight of each mouse was recorded at the time of randomization, on alternate days during dosing period and post-dosing period until the end of the study.

[4] = Doxorubicin solubility in ammonium salt solutions; assay type: physicochemical
[5] = test system: human OVCAR-3 ovarian adenocarcinoma cells; assay: OVCAR-3 ovarian adenocarcinoma xenograft, anti-tumor efficacy; assay type: in vivo, athymic nude mice
Experimental: Female athymic nude mice were inoculated subcutaneously in the left flank with a suspension of 5×10^6 human OVCAR-3 ovarian adenocarcinoma cells (200 µL injection volume) and monitored for tumor growth. Animals were selected, randomized into four treatment groups (n=8 per group) with a balanced tumor size of ˜100 mm^3 according to the study design (Table 9) below.
as §1, §2
For preparation and administration of reference and test item, all the test items are ready to use formulations. The strength of test formulation is 2 mg/ml of doxorubicin HCl in sterile 5 ml vial. 2 ml of reference or test item formulation (i.e. Doxorubicin HCl, LC3-PLDMS-2 and LC4-PLDMS-5) was diluted to 0.5 ml normal saline to achieve 1.6 mg/ml. 100 μL of final test formulation was injected intravenously to 20 g of mouse to achieve the 8 mg/kg dose. Group G1 animals received normal saline at the dose volume of 5 ml/kg.

[6] = Doxorubicin remote loading encapsulation efficiency and short stability; assay type: physicochemical; settings: for Encapsulation % (T0): doxorubicin
Experimental: In this stage the efficiency of remote loading encapsulation and encapsulation stability were studied. Liposomes were prepared as described above. […] All formulations were made from HSPC:Cholesterol:PEG-DSPE mole ratio of 54.5:41:4.5, briefly the lipids were hydrated and suspended in the various ammonium ions to form MLV. The MLV were downsized by extrusion followed by dialysis to remove external ammonium salt and form the gradient, finally drug was remote loaded into the gradient liposomes.

[7] = Doxorubicin accelerated chemical stability in ammonium-anion salt solutions; assay type: physicochemical; settings: 4 hours at 70° C.; for Additional peaks: HPLC
Experimental: For accelerated stability the, chemical stability of doxorubicin in various ammonium-anions salts solutions was tested. Briefly, doxorubicin (2 mg/ml) was dissolved in various ammonium-anions salt solutions and incubated for 4 hours at the temperature of 70° C. At the end of 4 hours incubation doxorubicin concentration and the presence of doxorubicin degradation products were analyzed by HPLC using Agilent 1100 according to following protocol: Mobile phase: 50% MeOH, 40% phosphate buffer, pH=4, 10% Acetonitrile and 2% TEA Column: Phenomenex, Luna, C-18, Flow: 1 ml/min, detection wavelength 254 and 480 nm.

[8] = Topotecan remote loading encapsulation efficiency; assay type: physicochemical; settings: 4 days storage at 5° C.
Experimental: Remote loading of topotecan were performed in the same way as the experiments described in Table 4 and Table 5 below for doxorubicin remote loading except that the drug concentration was determined from its absorbance at a wave length of 370 nm (which is the wavelength of maximum absorbance of topotecan).

[9] = 8 mg/kg i.v. once weekly for 2 weeks
[10] = counter anion 500 mM, salt pH 5.5
[11] = counter anion 500 mM, salt pH 6.2
[12] = counter anion 250 mM, salt pH 5.5
[13] = counter anion 500 mM, salt pH 5.53

Compound: O=C(O)[C@H]1OC(O)[C@H](O)[C@@H](O)[C@@H]1O (mixture of isomers) [Glucuronate]
- Log P (log D at pH=5.5) value quoted in text [1]: < −2.3
- LogD (acid)- at pH = 5.5 [1]: −5.38

Compound: O=S(=O)(O)CCCO [3-HydroxyPropane-1-Sulfonate]
- LogP (acid) [1]: −2.59
- LogD (acid)- at pH = 5.5 [1]: −5.39

Compound: COc1cccc2c1C(=O)c1c(O)c3c(c(O)c1C2=O)C[C@@](O)(C(=O)CO)C[C@@H]3O[C@H]1C[C@H](N)[C@H](O)[C@H](C)O1 [Doxorubicin HCl]
- drug levels in blood in comparison to Doxil® [2]: below limit of detection
- Mean Body Weight ([3]; Day 22): 22.4 g
- Mean Percentage Change in Body Weight ([3]; Day 22): 0.0%
- Mean Body Weight ([3]; Day 24): 22.1 g
- Mean Percentage Change in Body Weight ([3]; Day 24): −1.6%
- Mean Body Weight ([3]; Day 26): 21.6 g
- Mean Percentage Change in Body Weight ([3]; Day 26): −3.7%
- Mean Body Weight ([3]; Day 28): 21.8 g
- Mean Percentage Change in Body Weight ([3]; Day 28): −2.9%
- Mean Body Weight ([3]; Day 30): 21.5 g
- Mean Percentage Change in Body Weight ([3]; Day 30): −4.1%
- Mean Body Weight ([3]; Day 32): 21.4 g
- Mean Percentage Change in Body Weight ([3]; Day 32): −4.7%
- Mean Body Weight ([3]; Day 34): 21.1 g
- Mean Percentage Change in Body Weight ([3]; Day 34): −6.1%
- Mean Body Weight ([3]; Day 36): 20.9 g
- Mean Percentage Change in Body Weight ([3]; Day 36): −6.6%
- Mean Body Weight ([3]; Day 38): 20.8 g
- Mean Percentage Change in Body Weight ([3]; Day 38): −7.4%
- Mean Body Weight ([3]; Day 40): 20.6 g
- Mean Percentage Change in Body Weight ([3]; Day 40): −8.0%
- Mean Body Weight ([3]; Day 42): 20.6 g
- Mean Percentage Change in Body Weight ([3]; Day 42): −8.1%
- Mean Body Weight ([3]; Day 44): 20.5 g
- Mean Percentage Change in Body Weight ([3]; Day 44): −8.5%
- Mean Body Weight ([3]; Day 46): 20.5* g
- Mean Percentage Change in Body Weight ([3]; Day 46): −8.6%
- Mean Body Weight ([3]; Day 48): 20.8* g
- Mean Percentage Change in Body Weight ([3]; Day 48): −7.3%
- Mean Body Weight ([3]; Day 50): 20.9* g
- Mean Percentage Change in Body Weight ([3]; Day 50): −6.9%
- Mean Body Weight ([3]; Day 52): 21.1* g
- Mean Percentage Change in Body Weight ([3]; Day 52): −6.0%
- Mean Body Weight ([3]; Day 56): 21.4 g
- Mean Percentage Change in Body Weight ([3]; Day 56): −4.7%
- Mean Body Weight ([3]; Day 59): 21.8 g
- Mean Percentage Change in Body Weight ([3]; Day 59): −2.9%
- Mean Body Weight ([3]; Day 63): 22.1 g
- Mean Percentage Change in Body Weight ([3]; Day 63): −1.3%
- maximum body weight loss ([3]; G2 on day 46, other groups on day 32 / 34 as printed): −8.6%
- body weight gain by the end of experiment ([3]; mouse, in vivo): no body weight gain was observed
- higher solubility of the methanesulfonate form versus ammonium sulfate [4]: at least 35 fold
- solubility of doxorubicin in 250 mM ammonium alkyl or aryl sulfonate relative to 250 mM ammonium sulfate [4]: approximately 30 fold
- precipitation in the presence of alkyl or aryl sulfonate ions ([4]; 70 mM): did not precipitate
- concentration at which doxorubicin precipitates ([4]; in the presence of sulfate ions (ammonium sulfate)): less than 2 mM
- % Increased Life Span (% ILS) [5, 9]: 21.2%
- Mean TVDT [5, 9]: 7 days
- Median Survival Time (MST) [5, 9]: 63
- median life span [5, 9]: 63 days
- Log Cell Kill Value ([5]; 8 mg/kg i.v. once weekly for 2 weeks, derived from median tumor volume): 0.40
- Median Tumor Volume ([5]; Day 22): 110.9 mm^3
- Median Tumor Volume ([5]; Day 24): 128.6 mm^3
- Median Tumor Volume ([5]; Day 26): 145.8 mm^3
- Median Tumor Volume ([5]; Day 28): 173.8 mm^3
- Median Tumor Volume ([5]; Day 30): 194.7 mm^3
- Median Tumor Volume ([5]; Day 32): 215.5 mm^3
- Median Tumor Volume ([5]; Day 34): 252.9 mm^3
- Median Tumor Volume ([5]; Day 36): 311.1 mm^3
- Median Tumor Volume ([5]; Day 38): 379.4 mm^3
- Median Tumor Volume ([5]; Day 40): 453.8 mm^3
- Median Tumor Volume ([5]; Day 42): 550.9 mm^3
- Median Tumor Volume ([5]; Day 44): 673.4 mm^3
- Median Tumor Volume ([5]; Day 46): 802.4 mm^3
- Median Tumor Volume ([5]; Day 48): 1006.1 mm^3
- Median Tumor Volume ([5]; Day 50): 1218.8 mm^3
- Median Tumor Volume ([5]; Day 52): 1430.3 mm^3
- Median Tumor Volume ([5]; Day 56): 1799.5 mm^3
- Median Tumor Volume ([5]; Day 59): 2192.6 mm^3
- Median Tumor Volume ([5]; Day 63): 2699.3 mm^3

Compound: O=C(O)[C@H](O)[C@@H](O)[C@H](O)[C@H](O)CO [Gluconate]
- LogP (acid) [1]: −2.116
- LogD (acid)- at pH = 5.5 [1]: −4.83

- Encapsulation % (T0) [6, 10]: 41.19%
Compound: O=C(O)CO [Glycolate]
- LogP (acid) [1]: −1.204

- Encapsulation % Short stability 5° C. After one week ([6]; counter anion 500 mM, salt pH 6): 15.38%
Compound: CC(=O)C(=O)O [Pyruvate]
- LogP (acid) [1]: −1.24
- LogD (acid)- at pH = 5.5 [1]: −4.04

Compound: O=S(=O)(O)O [Sulfate]
- Assay loss (%) at 254 nm [7]: <15%
- Additional peaks [7]: no

- encapsulation efficiency (loading) ([8]; topotecan HCl 1.3 mg/ml, ammonium 350 mM, methanesulfonate 350 mM counter anion): 94%
- encapsulation efficiency (loading) ([8]; topotecan HCl, 500 mM ammonium, 250 mM sulfate counter anion): 93%
Compound: CC[C@@]1(O)C(=O)OCc2c1cc1n(c2=O)Cc2cc3c(CN(C)C)c(O)ccc3nc2-1 [topotecan]

Compound: Ethanesulfonate
- LogP (acid) [1]: −1.577
- LogD (acid)- at pH = 5.5 [1]: −4.85

Compound: Lactate
- Encapsulation % Short stability 5° C. After one week [6, 11]: 48.68%
- Encapsulation % (T0) ([6]; counter anion 250 mM, salt pH 4.5): 18.37%
- Encapsulation % (T0) [6, 12]: 23.42%
- Encapsulation % (T0) [6, 11]: 101.95%

- Encapsulation % (T0) [6, 12]: 36.23%
- Encapsulation % (T0) [6, 10]: 22.55%
Compound: Maleate

Compound: Methanesulfonate
- Encapsulation % Short stability 5° C. After one week [6, 13]: 110.66%
- Encapsulation % (T0) [6, 13]: 106.32%
- Assay loss (%) at 254 nm [7]: <15%
- Additional peaks [7]: no
- LogP (acid) [1]: −2.087
- LogD (acid)- at pH = 5.5 [1]: −5.39

Compound: Tartarate
- LogP (acid) [1]: −1.081
